Source: patent US20230190927A1, “ENPP1 INHIBITORS AND METHODS OF MODULATING IMMUNE RESPONSE” (Angarus Therapeutics, Inc., priority 2020, published 2023)

Tests used:
[1] = target: T1, purified recombinant mouse ENPP1 (Mus musculus, UniProt P06802); test: ENPP1 activity assay using TMP-pNP as a substrate; assay type: biochemical; details: TMP-pNP 2 μM, mouse ENPP1 0.5 nM, pH 7.5, room temperature
T1 sequence (P06802 1-906): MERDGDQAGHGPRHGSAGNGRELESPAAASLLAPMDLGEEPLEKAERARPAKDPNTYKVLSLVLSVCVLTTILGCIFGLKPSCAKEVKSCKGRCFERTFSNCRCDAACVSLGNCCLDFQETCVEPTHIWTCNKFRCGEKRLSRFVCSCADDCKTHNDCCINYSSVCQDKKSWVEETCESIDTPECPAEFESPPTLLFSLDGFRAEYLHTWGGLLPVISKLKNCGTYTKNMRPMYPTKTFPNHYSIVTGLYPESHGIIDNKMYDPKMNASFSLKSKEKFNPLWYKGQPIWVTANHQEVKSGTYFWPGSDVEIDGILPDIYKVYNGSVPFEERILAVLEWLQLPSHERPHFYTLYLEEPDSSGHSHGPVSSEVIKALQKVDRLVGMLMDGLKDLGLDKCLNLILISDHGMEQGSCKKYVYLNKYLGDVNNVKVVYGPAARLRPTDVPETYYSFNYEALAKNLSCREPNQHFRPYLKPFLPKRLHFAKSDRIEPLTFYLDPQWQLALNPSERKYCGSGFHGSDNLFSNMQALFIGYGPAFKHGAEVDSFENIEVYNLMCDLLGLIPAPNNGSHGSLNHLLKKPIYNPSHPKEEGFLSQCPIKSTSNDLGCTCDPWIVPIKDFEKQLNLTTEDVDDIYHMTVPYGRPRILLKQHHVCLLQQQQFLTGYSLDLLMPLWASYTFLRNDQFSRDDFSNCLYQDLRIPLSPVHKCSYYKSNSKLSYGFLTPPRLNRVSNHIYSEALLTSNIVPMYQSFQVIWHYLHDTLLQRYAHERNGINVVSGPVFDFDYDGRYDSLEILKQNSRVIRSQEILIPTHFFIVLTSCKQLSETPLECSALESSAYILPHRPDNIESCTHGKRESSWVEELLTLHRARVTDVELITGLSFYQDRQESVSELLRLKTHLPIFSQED
Procedure: Selected compounds of Table 1, Table 2 and other derivatives were prepared and assessed in an ENPP1 activity assay using thymidine monophosphate paranitrophenol (TMP-pNP) as a substrate. Enzyme reactions were prepared with TMP-pNP (2 μM), 5-fold dilutions of ENPP1 inhibitor, and purified recombinant mouse ENPP1 (0.5 nM) in 100 mM Tris, 150 mM NaCl, 2 mM CaCl2, 200 μM ZnCl2, pH 7.5 at room temperature. Reaction progress was monitored by measuring absorbance at 400 nm of paranitrophenolate produced by the reaction for 20 minutes.

4T1 tumor [2] = test: Tumor-associated dendritic cells in mouse 4T1 tumor model (FACS); details: intratumoral 100 μL of 1 mM compound 1
Procedure: Seven- to nine-week-old female Balb/c mice (Jackson Laboratories) were inoculated with 1×10^6 4 T1-luciferase tumor cells suspended in 50 μL of PBS into the mammary fat pad. […] Anaesthetized animals were shielded with a 3.2 mm lead shield with a 15×20 mm aperture where the tumor was placed. […] On the next day, the tumor was extracted and incubated in RPMI+ 10% FBS with 20 μg/mL DNase I type IV (Sigma-Aldrich) and 1 mg/mL Collagenase from Clostridium histolyticum (Sigma-Aldrich) at 37° C. for 30 min. […] Cells were stained with Live/Dead fixable near-IR dead cell staining kit (Thermo Fisher Scientific), Fc-blocked for 10 min using TruStain fcX and subsequently antibody-stained with CD11c, CD45, and I-A/I-E (all Biolegend). Cells were analyzed using an SH800S cell sorter (Sony) or an LSR II (BD Biosciences).
Mean±SEM (n=2). **P=0.004 (Student's t test).

[3] = target: T1, purified recombinant mouse ENPP1; test: ENPP1 enzyme activity assay using 32P cGAMP as a substrate (TLC); assay type: biochemical
Procedure: Compounds were also assessed in an ENPP1 enzyme activity assay using ^32P cGAMP as a substrate. Radiolabeled ^32P cGAMP was synthesized by incubating unlabeled ATP (1 mM) and GTP (1 mM) doped with ^32P-ATP with 2 μM purified recombinant porcine cGAS in 20 mM Tris pH 7.5, 2 mM MgCl2, 100 μg/mL herring testes DNA) overnight at room temperature, and the remaining nucleotide starting materials were degraded with alkaline phosphatase for 4 h at 37° C. The probe ^32P-cGAMP (5 μM) was incubated with purified recombinant mouse ENPP1 (20 nM) or whole cell lysates in 100 mM Tris, 150 mM NaCl, 2 mM CaCl2, 200 μM ZnCl2, pH 7.5 at room temperature for 5 hours. To generate enzyme inhibition curves, 5-fold dilutions of ENPP1 inhibitor were included in the reaction. […] Plates were exposed on a phosphor screen (Molecular Dynamics) and imaged on a Typhoon 9400 and the ^32P signal was quantified using ImageJ.

4T1 tumor [4] = test: 4T1 tumor model: IR with compound 1, cGAMP and/or anti-CTLA-4, tumor volume and survival; assay type: in vivo, mouse; details: 20 Gy IR, single agent intratumorally on day 2, 4 and 7 after IR (100 μL of 100 μM compound 1 or 10 μg cGAMP)
Procedure: Tumor volumes were recorded every other day.

[5] = 32P-cGAMP 5 μM, mouse ENPP1 20 nM, pH 7.5, room temperature, 5 hours, read-out: IC50 values (cGAMP; μM)

Procedure for human CD14+ monocytes: Primary human peripheral blood mononucleocyte cells (PBMCs) were isolated by subjecting enriched buffy coat from whole blood to a Percoll density gradient. CD14^+ monocytes were isolated using CD14^+ MicroBeads (Miltenyi). CD14^+ monocytes were cultured in RMPI supplemented with 2% human serum and 100 U/mL penicillin-streptomycin. […] 24-26 hours following supernatant transfer, total RNA was extracted using Trizol (Thermo Fisher Scientific) and reverse transcribed with Maxima H Minus Reverse Transcriptase (Thermo Fisher Scientific). Real-time RT-PCR was performed in duplicate with AccuPower 2X Greenstar qPCR Master Mix (Bioneer) on a 7900HT Fast Real-Time PCR System (Applied Biosystems). Data were normalized to CD14 expression for each sample. Fold induction was calculated using ΔΔCt.
Supernatant from these cells was transferred to primary CD14^+ human PBMCs. IFNB1 mRNA levels were normalized to CD14 and the fold induction was calculated relative to untreated CD14^+ cells.

IC50 [1] [µM] | SMILES | also measured
> 5 | O=P(O)(O)CCC1CCN(c2ncnc3nc[nH]c23)CC1 [Compound 68] | 
> 5 | CNC(=O)NCC1CCN(c2ncnc3cc(OC)c(OC)cc23)CC1 [Compound 73] | 
0.5 to 5 | O=P(O)(O)CCC1CCN(c2ncnc3cccc(F)c23)CC1 [Compound 70] | 
> 5 | COc1ccc2c(N3CCN(CCP(=O)(O)O)CC3)ncnc2c1 [Compound 42] | 
0.5 to 5 | O=P(O)(O)CCC1CCN(c2ncnc3cc4c(cc23)OCCO4)CC1 [Compound 13] | 
< 0.005 | COc1ccc2c(N3CCC(CCP(=O)(O)O)CC3)nc(/C=C/c3cccnc3)nc2c1 [Compound 18] | IC50 [3, 5]: 0.05 to 0.5 µM
0.05 to 0.5 | O=P(O)(O)CCC1CCN(c2ncnc3cc(Cl)ccc23)CC1 [Compound 84] | 
0.05 to 0.5 | O=P(O)(O)CCC1CCN(c2ncnc3cc(O)ccc23)CC1 [Compound 5] | 
> 5 | CC(C)Oc1ccc2c(N3CCC(CCP(=O)(O)O)CC3)ncnc2c1 [Compound 11] | 
0.005 to 0.05 | COc1ccc2ncnc(N3CCC(CCP(=O)(O)O)CC3)c2c1 [Compound 19] | 
0.005 to 0.05 | COc1ccc2c(N3CCC(CCP(=O)(O)O)CC3)nc(C)nc2c1 [Compound 12] | IC50 [3, 5]: 0.05 to 0.5 µM
< 0.005 | COc1cccc2c(N3CCC(CCP(=O)(O)O)CC3)ncnc12 [Compound 76] | IC50 [3]: 0.005 to 0.05 µM
0.05 to 0.5 | COc1cc2nccc(N3CCC(CCP(=O)(O)O)CC3)c2cc1OC [Compound 71] | 

Second part, the molecule before the results:

SMILES | IC50 [1] [µM] | also measured
Cc1cnc(C)n1-c1cc(N2CCN(CCP(=O)(O)O)CC2)ncn1 [Compound 103] | 0.05 to 0.5 | 
COc1cc2ncnc(N3CCC(CCP(=O)(O)O)CC3)c2cc1OC [Compound 1] |  | tumor associated CD11c+ population (4T1 tumor [2]; tumors pretreated with 20 Gy IR): increased the tumor associated CD11c^+ population; tumor-associated leukocyte compositions (4T1 tumor [2]; without IR, vs PBS control): did not change tumor-associated leukocyte compositions compared to the PBS control; extracellular cGAMP levels (human CD14+ monocytes; 293T cGAS ENPP1low cells with transient overexpression of ENPP1): rescued extracellular cGAMP levels; CD14+ IFNB1 expression (human CD14+ monocytes; supernatant of ENPP1-overexpressing 293T cGAS ENPP1low cells transferred to CD14+ monocytes): induced CD14^+ IFNB1 expression
COc1ccc2c(N3CCC(CCP(=O)(O)O)CC3)ncnc2c1OC [Compound 25] | 0.005 to 0.05 | 
COc1cc(OC)c2ncnc(N3CCC(CCP(=O)(O)O)CC3)c2c1 [Compound 7] | 0.05 to 0.5 | 
Nc1ccc2c(N3CCC(CCP(=O)(O)O)CC3)ncnc2c1 [Compound 30] | 0.05 to 0.5 | 
COc1ccc(OC)c2c(N3CCC(CCP(=O)(O)O)CC3)ncnc12 [Compound 16] | 0.5 to 5 | 
COc1cc2ncnc(N3CCC(COP(O)(O)=S)CC3)c2cc1OC [Compound 67] | 0.005 to 0.05 | 
COc1cc2ncnc([C@H]3CC[C@@H](CCP(=O)(O)O)CC3)c2cc1OC [Compound 81] | 0.005 to 0.05 | 
O=P(O)(O)CCC1CCN(c2ncnc3ccc(O)cc23)CC1 [Compound 23] | 0.5 to 5 | 
COc1cc2ncnc(N3CCC(CCB(O)O)CC3)c2cc1OC [Compound 87] | 0.05 to 0.5 | 
COc1cc2ncnc([C@H]3CC[C@H](CCP(=O)(O)O)CC3)c2cc1OC [Compound 82] | 0.005 to 0.05 | 
Cc1nccn1-c1cc(N2CCC(CCP(=O)(O)O)CC2)ncn1 [Compound 93] | 0.05 to 0.5 | 
COc1cc2ncnc(N3CCN(C(=O)CP(=O)(O)O)CC3)c2cc1OC [Compound 75] | 0.05 to 0.5 | IC50 [3, 5]: 0.5 to 5 µM
COc1cc2ncnc(N3CCC(CP(=O)(O)O)CC3)c2cc1OC [Compound 88] | 0.05 to 0.5 | 
COc1cc2ncnc(N3CCC(CCP(O)(O)=S)CC3)c2cc1OC [Compound 83] | 0.05 to 0.5 | 
COc1cccc2c(N3CCC(CCP(O)(O)=S)CC3)ncnc12 [Compound 92] | < 0.005 | 
Nc1nc2c(ncn2[C@@H]2O[C@@H]3COP(=O)(O)O[C@H]4[C@@H](O)[C@H](n5cnc6c(N)ncnc65)O[C@@H]4COP(=O)(O)O[C@@H]2[C@@H]3O)c(=O)[nH]1 [cGAMP, cyclic guanosine monophosphate-adenosine monophosphate] |  | tumor shrinkage effect over IR treatment (4T1 tumor [4]): had no effect over IR treatment
COc1ccc2c(N3CCC(CCP(=O)(O)O)CC3)ncnc2c1 [Compound 10] | < 0.005 | IC50 [3, 5]: 0.05 to 0.5 µM
COc1cc2ncnc(N3CCC(COP(=O)(O)O)CC3)c2cc1OC [Compound 60] | 0.05 to 0.5 | 
COc1cc2ccnc(N3CCC(CCP(=O)(O)O)CC3)c2cc1OC [Compound 38] | 0.05 to 0.5 | 
COc1cc2ncnc(N3CCC(CC(=O)NO)CC3)c2cc1OC [Compound 61] | 0.5 to 5 | 
COc1ccc2c(N3CCC(CCP(=O)(O)O)CC3)ncnc2c1OC [Compound 22] | 0.05 to 0.5 | 
COc1cccc2c(N3CCC(COP(=O)(O)O)CC3)ncnc12 [Compound 86] | < 0.005 | 
